{"source": "patent US10493077B2", "about": "“Fused imidazo-piperidine JAK inhibitor compound” (THERAVANCE BIOPHARMA R&D IP, LLC, priority 2017, dated 2019)", "key": {"[1]": {"biological_target": "T1, Tyk2 (Homo sapiens, UniProt P29597)", "T1 construct": "GST; purchased Life Technologies", "T1 sequence (P29597 whole entry)": "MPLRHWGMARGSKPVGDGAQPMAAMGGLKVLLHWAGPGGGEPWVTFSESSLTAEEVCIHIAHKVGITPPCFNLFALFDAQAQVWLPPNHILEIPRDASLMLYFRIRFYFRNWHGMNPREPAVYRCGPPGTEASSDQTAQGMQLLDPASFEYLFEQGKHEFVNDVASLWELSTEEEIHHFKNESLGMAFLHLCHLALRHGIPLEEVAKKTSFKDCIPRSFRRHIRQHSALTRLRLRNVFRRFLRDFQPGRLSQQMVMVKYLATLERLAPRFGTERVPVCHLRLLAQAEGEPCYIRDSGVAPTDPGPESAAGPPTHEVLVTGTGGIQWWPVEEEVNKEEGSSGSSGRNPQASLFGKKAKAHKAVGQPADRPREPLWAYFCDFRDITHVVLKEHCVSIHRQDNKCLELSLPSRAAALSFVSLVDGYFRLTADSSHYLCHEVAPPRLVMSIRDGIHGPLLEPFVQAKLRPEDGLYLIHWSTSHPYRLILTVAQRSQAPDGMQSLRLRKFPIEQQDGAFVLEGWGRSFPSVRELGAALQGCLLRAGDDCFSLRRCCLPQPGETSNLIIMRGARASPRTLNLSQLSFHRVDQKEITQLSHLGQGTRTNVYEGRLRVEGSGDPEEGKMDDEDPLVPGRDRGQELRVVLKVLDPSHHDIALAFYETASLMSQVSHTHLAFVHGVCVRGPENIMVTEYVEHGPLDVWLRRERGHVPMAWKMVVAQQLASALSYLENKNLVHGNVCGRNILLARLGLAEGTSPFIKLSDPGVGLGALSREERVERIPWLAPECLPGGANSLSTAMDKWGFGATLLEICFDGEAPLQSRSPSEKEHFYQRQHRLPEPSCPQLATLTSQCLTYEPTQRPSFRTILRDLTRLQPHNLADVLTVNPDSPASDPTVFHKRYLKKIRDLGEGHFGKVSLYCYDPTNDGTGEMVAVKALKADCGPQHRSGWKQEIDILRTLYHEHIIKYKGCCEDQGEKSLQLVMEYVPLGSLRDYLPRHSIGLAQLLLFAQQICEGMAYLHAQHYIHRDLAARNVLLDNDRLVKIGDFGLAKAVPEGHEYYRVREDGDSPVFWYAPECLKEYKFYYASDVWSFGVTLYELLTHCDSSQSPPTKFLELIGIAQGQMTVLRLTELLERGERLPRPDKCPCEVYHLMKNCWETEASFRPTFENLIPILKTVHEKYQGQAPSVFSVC", "experiment": "LanthaScreen JAK biochemical assay, Tyk2", "conditions": "read-out: Tyk2 pKi (converted)", "description": "A panel of four LanthaScreen JAK biochemical assays (JAK1, 2, 3 and Tyk2) were carried in a common kinase reaction buffer (50 mM HEPES, pH 7.5, 0.01% Brij-35, 10 mM MgCl2, and 1 mM EGTA). Recombinant GST-tagged JAK enzymes and a GFP-tagged STAT1 peptide substrate were obtained from Life Technologies.\nSerially diluted compound was pre-incubated with each of the four JAK enzymes and the substrate in white 384-well microplates (Corning) at ambient temperature for 1 h. ATP was subsequently added to initiate the kinase reactions in 10 μL total volume, with 1% DMSO. […] The plates were allowed to incubate at ambient temperature for 1 h before being read on the EnVision reader (Perkin Elmer). Emission ratio signals (520 nm/495 nm) were recorded and utilized to calculate the percent inhibition values based on DMSO and background controls.\nFor dose-response analysis, percent inhibition data were plotted vs. compound concentrations, and IC50 values were determined from a 4-parameter robust fit model with the Prism software (GraphPad Software). Results were expressed as pIC50 (negative logarithm of IC50) and subsequently converted to pKi (negative logarithm of dissociation constant, Ki) using the Cheng-Prusoff equation."}, "[2]": {"system": "IL-6, IL-2, and IFNγ signaling", "experiment": "Cellular assays of Assays 3 to 6 (summary statement)", "type": "cell-based", "conditions": "Homo sapiens, cellular assays described in Assays 3 to 6", "description": "(§1) The potency of the test compound for inhibition of interleukin-2 (IL-2)/anti-CD3 stimulated interferon gamma (IFNγ) was measured in human peripheral blood mononuclear cells (PBMCs) isolated from human whole blood (Stanford Blood Center). Because IL-2 signals through JAK, this assay provides a measure of JAK cellular potency.\nas §1, with “STAT5 phosphorylation” for “interferon gamma (IFNγ)”, “measured in CD4-positive (CD4+) T cells” for “measured”, “Center) using flow cytometry.” for “Center).”\nThe potency of the test compound for inhibition of interleukin-6 (IL-6) stimulated CCL2 (MCP-1) production was measured in human peripheral blood mononuclear cells (PBMCs) isolated from human whole blood (Stanford Blood Center). Because IL-6 signals through JAK, this assay provides a distal measure of JAK cellular potency.\nThe potency of the test compound for inhibition of interferon gamma (IFNγ) stimulated STAT1 phosphorylation was measured in CD14-positive (CD14+) monocytes derived from human whole blood (Stanford Blood Center) using flow cytometry. Because IFNγ signals through JAK, this assay provides a measure of JAK cellular potency."}, "[3]": {"biological_target": "T2, VEGFR2 (Homo sapiens, UniProt P35968)", "T2 construct": "made in house; host or cells: T7 phage in E. coli (BL21-derived) or HEK-293", "T2 sequence (P35968 20-1356)": "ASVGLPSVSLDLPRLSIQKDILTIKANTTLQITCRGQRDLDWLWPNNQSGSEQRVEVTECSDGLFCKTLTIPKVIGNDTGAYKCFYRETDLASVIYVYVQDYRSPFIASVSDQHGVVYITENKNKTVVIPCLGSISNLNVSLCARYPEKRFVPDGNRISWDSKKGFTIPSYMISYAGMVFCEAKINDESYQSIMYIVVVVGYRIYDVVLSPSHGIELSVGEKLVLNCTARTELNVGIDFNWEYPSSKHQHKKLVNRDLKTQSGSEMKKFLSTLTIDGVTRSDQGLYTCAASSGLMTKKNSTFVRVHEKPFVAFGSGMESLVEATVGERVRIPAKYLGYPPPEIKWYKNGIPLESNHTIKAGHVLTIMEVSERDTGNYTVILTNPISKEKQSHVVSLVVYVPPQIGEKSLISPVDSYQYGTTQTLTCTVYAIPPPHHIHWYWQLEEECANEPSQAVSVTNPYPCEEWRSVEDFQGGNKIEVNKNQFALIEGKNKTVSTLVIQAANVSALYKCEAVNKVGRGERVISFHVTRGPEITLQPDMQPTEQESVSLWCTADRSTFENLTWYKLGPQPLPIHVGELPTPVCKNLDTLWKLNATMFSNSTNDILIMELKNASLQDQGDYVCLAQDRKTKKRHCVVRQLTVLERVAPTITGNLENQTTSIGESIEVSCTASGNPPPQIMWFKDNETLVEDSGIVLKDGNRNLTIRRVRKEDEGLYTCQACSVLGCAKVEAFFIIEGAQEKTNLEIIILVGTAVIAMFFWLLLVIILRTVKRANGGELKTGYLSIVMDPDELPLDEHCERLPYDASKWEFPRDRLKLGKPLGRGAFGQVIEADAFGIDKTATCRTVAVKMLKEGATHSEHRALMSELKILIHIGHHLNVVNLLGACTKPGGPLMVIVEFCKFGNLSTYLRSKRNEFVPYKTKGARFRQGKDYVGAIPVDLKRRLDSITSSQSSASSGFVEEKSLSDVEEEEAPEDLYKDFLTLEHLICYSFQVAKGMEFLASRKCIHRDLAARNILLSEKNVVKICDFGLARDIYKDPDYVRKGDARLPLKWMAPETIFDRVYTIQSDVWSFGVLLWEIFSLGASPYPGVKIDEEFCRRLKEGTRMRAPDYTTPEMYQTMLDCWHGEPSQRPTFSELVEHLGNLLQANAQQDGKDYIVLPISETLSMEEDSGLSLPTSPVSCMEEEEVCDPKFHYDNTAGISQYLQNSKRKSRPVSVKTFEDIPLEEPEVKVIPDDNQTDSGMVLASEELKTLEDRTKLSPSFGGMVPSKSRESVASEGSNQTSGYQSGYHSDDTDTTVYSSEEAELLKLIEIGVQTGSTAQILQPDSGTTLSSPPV", "experiment": "Kinome screen, VEGFR2", "type": "binding", "conditions": "screened at 1 μM", "description": "(§2) Kinase-tagged T7 phage strains were grown in parallel in 24-well blocks in an E. coli host derived from the BL21 strain. E. coli were grown to log-phase and infected with T7 phage from a frozen stock (multiplicity of infection=0.4) and incubated with shaking at 32° C. until lysis (90-150 minutes). The lysates were centrifuged (6,000×g) and filtered (0.2 μm) to remove cell debris. The remaining kinases were produced in HEK-293 cells and subsequently tagged with DNA for qPCR detection.\n(§3) Streptavidin-coated magnetic beads were treated with biotinylated small molecule ligands for 30 minutes at room temperature to generate affinity resins for kinase assays. The liganded beads were blocked with excess biotin and washed with blocking buffer (SeaBlock (Pierce), 1% BSA, 0.05% Tween 20, 1 mM DTT) to remove unbound ligand and to reduce non-specific phage binding. […] Test compounds were prepared as 40× stocks in 100% DMSO and directly diluted into the assay. All reactions were performed in polypropylene 384-well plates in a final volume of 0.04 ml. […] The beads were then re-suspended in elution buffer (1×PBS, 0.05% Tween 20, 0.5 μM non-biotinylated affinity ligand) and incubated at room temperature with shaking for 30 minutes. The kinase concentration in the eluates was measured by qPCR."}, "[4]": {"biological_target": "T3, AURKA (Homo sapiens, UniProt O14965)", "T3 construct": "made in house; host or cells: T7 phage in E. coli (BL21-derived) or HEK-293", "T3 sequence (O14965 whole entry)": "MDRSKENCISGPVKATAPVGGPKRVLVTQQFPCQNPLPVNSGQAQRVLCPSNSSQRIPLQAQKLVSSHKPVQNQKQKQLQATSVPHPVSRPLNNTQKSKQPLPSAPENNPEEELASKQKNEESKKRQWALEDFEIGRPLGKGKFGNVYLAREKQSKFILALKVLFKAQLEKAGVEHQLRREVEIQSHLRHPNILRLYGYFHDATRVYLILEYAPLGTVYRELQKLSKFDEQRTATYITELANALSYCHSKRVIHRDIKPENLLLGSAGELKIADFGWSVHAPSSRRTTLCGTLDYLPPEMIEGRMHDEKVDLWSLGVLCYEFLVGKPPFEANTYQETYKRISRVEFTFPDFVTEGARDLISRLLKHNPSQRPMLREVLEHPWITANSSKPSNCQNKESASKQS", "experiment": "Kinome screen, AURKA", "type": "binding", "conditions": "screened at 1 μM", "description": "as §2, §3"}, "[5]": {"biological_target": "T4, SRC (Homo sapiens, UniProt P12931)", "T4 construct": "made in house; host or cells: T7 phage in E. coli (BL21-derived) or HEK-293", "T4 sequence (P12931 whole entry)": "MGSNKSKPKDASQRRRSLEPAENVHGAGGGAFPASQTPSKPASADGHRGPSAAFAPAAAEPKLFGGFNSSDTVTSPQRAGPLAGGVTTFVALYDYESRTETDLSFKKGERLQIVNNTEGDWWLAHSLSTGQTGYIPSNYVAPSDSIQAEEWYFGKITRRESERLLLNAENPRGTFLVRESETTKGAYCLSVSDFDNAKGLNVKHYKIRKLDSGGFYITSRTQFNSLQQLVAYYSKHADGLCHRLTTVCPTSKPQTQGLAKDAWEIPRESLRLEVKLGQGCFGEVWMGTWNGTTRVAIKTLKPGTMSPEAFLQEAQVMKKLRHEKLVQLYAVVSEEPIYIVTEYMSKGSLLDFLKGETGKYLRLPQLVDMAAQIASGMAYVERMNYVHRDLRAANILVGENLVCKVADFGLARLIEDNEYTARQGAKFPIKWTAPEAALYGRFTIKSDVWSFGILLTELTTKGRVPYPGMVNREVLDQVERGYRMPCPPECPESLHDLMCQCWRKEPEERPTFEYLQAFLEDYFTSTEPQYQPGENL", "experiment": "Kinome screen, SRC", "type": "binding", "conditions": "screened at 1 μM", "description": "as §2, §3"}, "[6]": {"biological_target": "T5, CDK7 (Homo sapiens, UniProt P50613)", "T5 construct": "made in house; host or cells: T7 phage in E. coli (BL21-derived) or HEK-293", "T5 sequence (P50613 whole entry)": "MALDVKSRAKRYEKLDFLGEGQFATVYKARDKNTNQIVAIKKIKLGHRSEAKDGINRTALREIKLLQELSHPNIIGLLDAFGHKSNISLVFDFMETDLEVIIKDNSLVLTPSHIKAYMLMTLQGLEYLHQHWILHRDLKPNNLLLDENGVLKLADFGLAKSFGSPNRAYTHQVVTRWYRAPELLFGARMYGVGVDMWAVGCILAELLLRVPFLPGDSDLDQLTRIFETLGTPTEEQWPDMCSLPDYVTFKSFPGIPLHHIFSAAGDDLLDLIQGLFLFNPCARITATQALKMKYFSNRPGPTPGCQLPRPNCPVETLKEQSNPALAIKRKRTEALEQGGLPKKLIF", "experiment": "Kinome screen, CDK7", "type": "binding", "conditions": "screened at 1 μM", "description": "as §2, §3"}}, "note": "Read-outs that look alike come from different tables or passages of the source."}
{"smiles": "CCc1cc(O)c(F)cc1-c1cc(F)c2c(-c3nc4c([nH]3)CCN(C(=O)CN3CCOCC3)C4)n[nH]c2c1", "note": "[Compound 1, 1-(2-(6-(2-ethyl-5-fluoro-4-hydroxyphenyl)-4-fluoro-1H-indazol-3-yl)-1,4,6,7-tetrahydro-5H-imidazo[4,5-c]pyridin-5-yl)-2-morpholinoethan-1-one]", "values": [{"measurement": "Ki", "setting": "[1]", "result": 2, "unit": "nM"}, {"measurement": "IC50", "setting": "[2]; read-out: IC50 for inhibition of IL-6, IL-2, and IFNγ signaling", "result": "≤ 400", "unit": "nM"}, {"measurement": "IC50", "setting": "[2]; read-out: pIC50 for inhibition of IL-6, IL-2, and IFNγ signaling (converted)", "result": "≤ 398", "unit": "nM"}, {"measurement": "inhibition at 1 µM", "setting": "[3]", "result": 42, "unit": "%"}, {"measurement": "inhibition at 1 µM", "setting": "[4]", "result": 11, "unit": "%"}, {"measurement": "inhibition at 1 µM", "setting": "[5]", "result": 93, "unit": "%"}, {"measurement": "inhibition at 1 µM", "setting": "[6]", "result": 74, "unit": "%"}]}
